Data published in patent publication US12005051B2, “Topical roflumilast formulation having improved delivery and plasma half life” (ARCUTIS BIOTHERAPEUTICS, inc., priority 2017, dated 2024).
Like-named read-outs stand apart in the source and are kept apart here. One block for each compound: values may come before it.

Tests used:
[1] = design: species or system human; settings: in vivo
Method: A parallel group, double blind, vehicle-controlled study was performed in which ARQ-151 cream 0.3% (Formulation 3 in Example 5) or ARQ-151 cream 0.15% (Formulation 7) or vehicle cream is applied QD for 84 days to subjects with chronic plaque psoriasis involving between 2 and 20% body surface area (BSA).
A total of approximately 300 subjects were enrolled at approximately 30 study sites in the United States and Canada. Subjects were adult (≥18 y/o) males or females with chronic plaque psoriasis. […] Subjects with an IGA of ‘Mild’ (2) were limited to 20% of total enrollment. Subjects with an IGA of ‘Severe’ (4) were limited to 15% of total enrollment. Subjects had at least 2% and no more than 20% Body Surface Area (BSA) of chronic plaque psoriasis. All psoriasis lesions on a subject were treated including the face, trunk, genitals/skin folds, or limbs (excluding the scalp). The palms and soles were treated but were not counted towards any measurements of efficacy (IGA, BSA, mPASI). For subjects with intertriginous area involvement, and with severity of the intertriginous area lesions at least ‘mild’ (IGA≥2) at Baseline, ‘I-IGA’ score was recorded at weeks 4, 6, 8 and 12. The same IGA used for the primary endpoint (whole body) was also used for ‘intertriginous area lesion IGA score’ (I-IGA), but only intertriginous areas were evaluated for I-IGA, not the rest of the body.
(§1) Blood samples were taken from all subjects at all sites as pre-dose on Day 1 (baseline) and Weeks 4 (Day 29) and 12 (Day 85). The analysis of the PK data collected was performed with a CFR 21 Part 11 compliant software package (Phoenix WinNonlin version 8.1) which is in full compliance with ICH-GCP. Samples from all subjects within the PK population were evaluated. Any subject or data excluded from the PK analysis were identified, along with the reason for exclusion in this PK report. BSA was averaged based on Baseline, Week 2, Week 4, Week 6 and Week 8 measured BSA values, the screening values, Week 12 and Week 16 values, and any other unscheduled visit values were excluded. Four subjects participated in an optional phase at the completion of the study to assess the elimination of roflumilast and the N-oxide at the end of treatment, however only three had quantifiable concentrations of roflumilast and the N-oxide. From the three subjects, the terminal rate constant (lambda z, λz) was determined by the slope of the regression line of the natural log transformed concentrations vs. time data. The terminal half-life (t½) was calculated as: In(2)/λz.
(§2) Concentration values that are reported BLQ (<0.100 for roflumilast and N-oxide) were reported as below limit of quantification (BLQ) in the concentration data listings and considered non-numerical. Nonnumerical values were ignored in the concentration by nominal time summary statistics. Summary statistics (i.e. N, arithmetic mean, SD, CV %, minimum, median, maximum, geometric mean, geometric SD, 95% confidence intervals for both the arithmetic mean and geometric mean) were calculated for plasma concentrations for each analyte, nominal day and dose strength. All concentration and descriptive statistic values were reported to three significant figures.

[2] = optional elimination phase assessment at end of treatment with ARQ-151 cream in psoriasis; assay type: in vivo, human; settings: for half-life: human, plasma
Method: as §1, §2

clinical = settings: human, in vivo, po
Method: In addition to the consistent delivery of a suspended active ingredient from a topical product, successful treatment also depends on the elimination kinetics of the active ingredient. After a drug is absorbed into a patient's body, elimination begins thereby reducing the concentration over time. The half-life determines the length of time that the drug will be effective. […] Since the maximum plasma concentration (11.4 ng roflumilast per mL plasma) occurs for roflumilast about 1 hour after oral dosing, mean plasma concentration at the time of the first missed dose (1 day after the most recent dose) will be approximately 5.7 ng/mL (half the 11.4 ng/mL maximum plasma concentration). […] For oral roflumilast, use of a sustained release oral drug delivery system instead of the immediate release tablet studied by Huang, would be an example of extrinsic PK property modification to increase the adherence imperfection forgiveness of the product that would benefit the patient that missed one or more doses of roflumilast.

[3] = roflumilast crystal size by polarized light microscopy, dry and after six weeks storage in solvent blends; assay type: physicochemical; settings: for crystal width: six weeks at room temperature
[4] = dissolution of roflumilast in solvents and solvent:water blends at 25° C.; assay type: physicochemical
Method: (§3) 0.0092 grams of roflumilast (Batch A14367P from Interquim S.A.) was weighed into a liquid scintillation vial. An equimolar blend of hexylene glycol (lot 1AC0818, Spectrum) and distilled water was added dropwise with mixing to the vial containing roflumilast to produce a suspension of roflumilast in excess of the solubility limit. An equimolar blend is 86.7% hexylene glycol and 13.3% water on a weight/weight percent basis. After mixing each addition of hexylene glycol:water blend, the tightly capped vial was returned to a water bath set at 25° C. It required 0.7962 grams of equimolar Hexylene Glycol:Water blend to completely dissolve the 0.0092 grams of roflumilast and give a 1.14% roflumilast in equimolar Hexylene Glycol:Water (wt/wt %) solution. 0.0064 grams of roflumilast was added to this sample (labeled 12-3) to form a finely dispersed suspension at 25° C. and the vial was then stored undisturbed at about 15-18° C., protected from the light for six weeks. A sample of the roflumilast crystals was removed from the vial, placed on a microscope slide (with coverslip) and then examined using polarized light microscopy using a 10× objective (FIG. 2, microscope sample 20-3).
0.0111 grams of roflumilast (Batch A14367P from Interquim S.A.) was weighed into a liquid scintillation vial. An equimolar blend of […] (Transcutol P, lot 146063, Gattefosse) and distilled water was added dropwise with mixing to the vial containing roflumilast to produce a suspension of roflumilast in excess of the solubility limit. An equimolar blend is 88.3% DEGEE and 11.7% water on a weight/weight percent basis. After mixing each addition of DEGEE:water blend, the tightly capped vial was returned to a water bath set at 25° C. It required 0.2477 grams of equimolar DEGEE:Water blend to completely dissolve the 0.0111 grams of roflumilast and give a 4.29% roflumilast in equimolar DEGEE:Water (wt/wt %) solution. This sample (labeled 13-1) was a solution of roflumilast at 25° C. and the vial was then stored undisturbed at about 15-18° C., protected from the light for six weeks. Roflumilast crystals precipitated due to the cooler storage temperature. A sample of the roflumilast crystals was removed from the vial, placed on a microscope slide (with coverslip) and then examined using polarized light microscopy using a 10× objective (FIG. 3, microscope sample 20-2).
as §3, with “4×” for “10×”, “4,” for “2,”
0.0180 grams of roflumilast (Batch A14367P from Interquim S.A.) was weighed into a liquid scintillation vial. Polyethylene glycol 400 (lot 1 DE0880, Spectrum) was added dropwise with mixing to the vial containing roflumilast to produce a suspension of roflumilast in excess of the solubility limit. After mixing each addition of polyethylene glycol 400, the tightly capped vial was returned to a water bath set at 25° C. […]

[5] = cited from earlier work; for mean plasma half-life: multiple 0.375 mg doses, immediate release oral roflumilast
[6] = cited from earlier work

mean N-oxide pre-dose plasma concentration relative to parent pre-dose plasma concentration [1]: 5.3-6.2 fold
mean pre-dose plasma concentration, Day 29 versus Day 85 [1]: ≤ 2 fold
Half-life values ([2]; three subjects, end of treatment, topical ARQ-151): around 3.6 days
Compound: O=C(Nc1c(Cl)c[n+]([O-])cc1Cl)c1ccc(OC(F)F)c(OCC2CC2)c1 [roflumilast N-oxide]

concentration at 1 day (clinical): ~5.7 ng/mL
concentration at 2 days (clinical): ~2.8 ng/mL
concentration at 72 hours (clinical): ~1.4 ng/mL
crystal width ([3]; Sample 21-1, HG:NMP:Water (water mole fraction=1.2)): 0.02 mm
crystal width ([3]; Sample 21-2, equimolar ethanol:water): 0.02 mm
crystal width ([3]; Sample 21-3, equimolar PEG 400:water): 0.02 mm
crystal width ([3]; Sample 21-5, equimolar propylene glycol:water): 0.02 mm
storage time until fine roflumilast crystals were observed ([4]; 0.28% roflumilast, 88.97% propylene glycol, 10.75% water, initially clear solution, 25° C.): 105 min
roflumilast concentration in solution ([4]; dimethyl sulfoxide, 25° C.): 28.5%
roflumilast concentration at complete dissolution ([4]; equimolar DEGEE:Water, 25° C.): 4.29 wt/wt %
roflumilast concentration at complete dissolution ([4]; equimolar Hexylene Glycol:Water, 25° C.): 1.14 wt/wt %
roflumilast concentration completely dissolved ([4]; equimolar N-Methyl-2 pyrrolidone:water, 25° C.): 22.85%
roflumilast concentration at complete dissolution ([4]; polyethylene glycol 400, 25° C.): 3.18%
mean pre-dose plasma concentration, Day 29 versus Day 85 ([1]; both, human): ≤ 2 fold
increase of roflumilast plasma pre-dose concentration between the 2-fold increase in dose strength ([1]; both, human, 29 day): about 1.6 fold
increase of roflumilast plasma pre-dose concentration between the 2-fold increase in dose strength ([1]; both, human, 85 day): about 1.7 fold
half-life ([2]; topical or ocular, three subjects, end of treatment, topical ARQ-151, read-out: Half-life values (converted)): ~86.4 h
half-life ([2]; after topical administration of a formulation with self-emulsifying wax blend of dicetyl phosphate and ceteth-10 phosphate and a solvent, read-out: plasma half-life of roflumilast): 81.6 to 88.8 h
Compound: O=C(Nc1c(Cl)cncc1Cl)c1ccc(OC(F)F)c(OCC2CC2)c1 [roflumilast, N-(3,5-dichloropyrid-4-yl)-3-cyclopropylmethoxy-4-difluoromethoxybenzamid-e]
roflumilast crystalline growth, comparison ([3]; equimolar N-methyl pyrrolidone:water compared to 12:4:3 (wt/wt/wt) hexylene glycol:N-methyl pyrrolidone:water): Dramatically greater roflumilast crystalline growth
mean plasma half-life [5]: about 1 day
mean plasma half-life ([5]; mean of 12 subjects): 25.6 h
maximum plasma concentration ([5]; multiple 0.375 mg oral doses): 11.4 ng/mL
time of maximum plasma concentration after oral dosing ([5]; multiple 0.375 mg oral doses): about 1 hour
plasma half-life ([6]; after intravenous administration in humans): about 15 hours
plasma half-life ([6]; after oral administration): 17 to 30 h
